Data on three compounds can be found in patent US7253197B2, “Aminothiazole derivatives” (Hoffmann-La Roche Inc., priority 2002, dated 2007).

A word on the IC50: it is the concentration needed to halve the response being measured.

This assay has as its target T1, recombinant mouse NPY5-receptor (mNPY5) (Mus musculus, UniProt O70342).
T1 construct: The full-length cDNA encoding the mouse NPY5 (mNPY5) receptor was amplified from mouse brain cDNA; expressed in transfected cells; membrane preparation
T1 sequence (O70342 1-466): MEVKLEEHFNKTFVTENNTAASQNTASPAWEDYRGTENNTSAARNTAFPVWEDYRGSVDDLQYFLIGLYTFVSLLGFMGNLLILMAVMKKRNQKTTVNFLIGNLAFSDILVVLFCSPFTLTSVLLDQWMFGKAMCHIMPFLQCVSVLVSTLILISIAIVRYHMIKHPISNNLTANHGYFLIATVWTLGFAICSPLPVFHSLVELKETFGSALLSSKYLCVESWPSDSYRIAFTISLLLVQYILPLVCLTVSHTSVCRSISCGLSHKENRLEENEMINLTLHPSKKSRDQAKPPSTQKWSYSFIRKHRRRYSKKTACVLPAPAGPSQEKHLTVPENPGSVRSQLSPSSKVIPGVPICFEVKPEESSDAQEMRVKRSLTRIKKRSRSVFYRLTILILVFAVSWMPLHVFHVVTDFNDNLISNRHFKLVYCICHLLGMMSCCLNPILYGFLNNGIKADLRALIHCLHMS
Kind of assay: Radioligand competition binding. The note with it: HEK293 membranes expressing mNPY5; displacement of 100 pM [125I]labeled PYY; 1 h at 22° C.; read-out: NPY5-R (mouse) IC50. An excerpt:
The full-length cDNA encoding the mouse NPY5 (mNPY5) receptor was amplified from mouse brain cDNA using specific primers, designed based on the published sequence, and Pfu DNA-Polymerase. The amplification product was subcloned into the mammalian expression vector pcDNA3 using Eco RI and XhoI restriction sites. Positive clones were sequenced and one clone, encoding the published sequence was selected for generation of stable cell clones. The sequence is published in Borowsky B., et al., “Molecular Biology and Pharmacology of Multiple NPY Y5 Receptor Species Homologs”, Regul. Pept. 75-76:45-53 (1998).
Human embryonic kidney 293 (HEK293) cells were transfected with 10 μg mNPY5 DNA using the lipofectamine reagent. Two days after transfection, geneticin selection (1 mg/ml) was initiated and several stable clones were isolated. One clone was further used for pharmacological characterization.
Human embryonic kidney 293 cells (HEK293), expressing recombinant mouse NPY5-receptor (mNPY5) were broken by three freeze/thawing cycles in hypotonic Tris buffer (5 mM, pH 7.4, 1 mM MgCl2), homogenized and centrifuged at 72,000×g for 15 min. The pellet was washed twice with 75 mM Tris buffer, pH 7.4, containing 25 mM MgCl2 and 250 mM sucrose, 0.1 mM phenylmethylsulfonylfluoride and 0.1 mM 1,10-pheneanthrolin, resuspended in the same buffer and stored in aliquots at −80° C. Protein was determined according to the method of Lowry using bovine serum albumine (BSA) as a standard. […]
In general terms: In a radioligand displacement assay an active substance lowers the binding of a labelled ligand.

For the compound `O=C(c1cnc(Nc2cccc(C(F)(F)F)c2)s1)c1ccccc1Cl` [Example 29, (2-Chloro-phenyl)-[2-(3-trifluoromethyl-phenylamino)-thiazol-5-yl]-methanone], the half-maximal inhibitory concentration (IC50) was 8 nM.
On to `CC(=O)c1cccc(Nc2ncc(C(=O)c3ccccc3C)s2)c1` [Example 61, 1-{3-[5-(2-Methyl-benzoyl)-thiazol-2-ylamino]-phenyl}-ethanone], for which the IC50 came out at 86 nM.
The same measure for `N#Cc1cccc(Nc2ncc(C(=O)c3ccc(F)cc3)s2)c1` [Example 8, 3-[5-(4-Fluoro-benzoyl)-thiazol-2-ylamino]-benzonitrile]: 66 nM.
